The subject of data set [1] is genotype 2a HCV replication (Rluc-J6/JFH1). The data set can be described thus: GT 2a luciferase reporter assay in Rluc-J6/JFH1 RNA-transfected Huh7.5 cells. It is filed as cell-based, Hepatitis C virus.
A further data set is described as follows: in vitro. It is filed as cell-based. To be noted: human; Table 1 summary; read-out: CC50 (M), GT 2a luciferase reporter assay.
The subject of data set [2] is genotype 2a HCV replication (J6/JFH1). The data set can be described thus: GT 2a RT-PCR in J6/JFH1 RNA-transfected Huh7.5 cells. It is filed as cell-based, Hepatitis C virus.
Data set [3] concerns genotype 1b HCV replication (Bart79I). As to the kind of experiment: GT 1b RT-PCR in Bart79I replicon Huh7.5 cells. The class given is cell-based, Hepatitis C virus.
Data set [4] deals with HCV NS3 protein expression (genotype 2a). As to the kind of experiment: GT 2a Western blot of HCV NS3 protein in J6/JFH1 RNA-transfected Huh7.5 cells. It is filed as cell-based, Hepatitis C virus. To be noted: for T1/2 (time required for 50% reduction of the HCV NS3 protein): compound at 10 μM, Western blot, Huh7.5-J6/JFH1 (genotype 2a).
The test system of data set [5] is HCV NS3 protein level (genotype 1b). The data set can be described thus: GT 1b Western blot of HCV protein in Bart79I RNA-transfected Huh7.5 cells. It is filed as cell-based, Hepatitis C virus. To be noted: for T1/2 (time for 50% reduction of HCV protein): compound at 10 μM, Western blot, Huh7.5-Bart79I (genotype 1b). On the technique in general: A western blot detects proteins with antibodies after separation by electrophoresis.

The test system of another data set is Huh7.5 cells. The data set can be described thus: in vitro. It is filed as cell-based. To be noted: Table 1 summary; read-out: CC50 (M), GT 2a luciferase reporter assay. On the technique in general: Reporter assays use an easily measured gene product as a stand-in for the process of interest.
Data set [6] can be described thus: In vivo pharmacokinetic study of SVF in mice. To be noted: male, ICR, mouse, plasma.
On the set-up of data set [7]: method as in ref 25 = [25]. To be noted: mice; cited from earlier work.
The test system of another data set is HCV replication. Further details: method as in ref 14 = [14]. To be noted: previous study, cited from earlier work.
On the set-up of data set [8]: method as in ref 14 = [14]. To be noted: previous study; cited from earlier work.
The target in the next data set is viral helicase NS3. Further details: method as in ref 14 = [14]. To be noted: previous study; cited from earlier work.
For data set [9] the following is noted: cited from earlier work.
Data set [10] has as its target T1, genotype 1b HCV NS3 helicase (Hepatitis C virus genotype 1b, UniProt Q9WMX2).
T1 construct: 2 nM of HCV NS3 helicase in a total volume of 60 μL
As to the kind of experiment: Graphene oxide (GO)-based NS3 helicase inhibition assay. The class given is biochemical.

Setting [11] is: Hepatitis C virus, GETYPE2A|GT2A, Huh7.5, read-out: EC50 (M), GT 2a luciferase reporter assay, Table 1 summary.
Setting [12] is: Hepatitis C virus, Huh7.5, read-out: EC50 (M), GT 1b Western blot.
Setting [13] is: read-out: EC50 (M), GT 2a RT-PCR, Table 1 summary.
[14] abbreviates: read-out: EC50 (M), GT 1b RT-PCR, Table 1 summary.
Where [15] appears, read: read-out: EC50 (M), GT 2a Western blot, Table 1 summary.

The structures appear in SMILES notation. Like-named read-outs stand apart in the source and are kept apart here.

T1 sequence (Q9WMX2 1027-1657): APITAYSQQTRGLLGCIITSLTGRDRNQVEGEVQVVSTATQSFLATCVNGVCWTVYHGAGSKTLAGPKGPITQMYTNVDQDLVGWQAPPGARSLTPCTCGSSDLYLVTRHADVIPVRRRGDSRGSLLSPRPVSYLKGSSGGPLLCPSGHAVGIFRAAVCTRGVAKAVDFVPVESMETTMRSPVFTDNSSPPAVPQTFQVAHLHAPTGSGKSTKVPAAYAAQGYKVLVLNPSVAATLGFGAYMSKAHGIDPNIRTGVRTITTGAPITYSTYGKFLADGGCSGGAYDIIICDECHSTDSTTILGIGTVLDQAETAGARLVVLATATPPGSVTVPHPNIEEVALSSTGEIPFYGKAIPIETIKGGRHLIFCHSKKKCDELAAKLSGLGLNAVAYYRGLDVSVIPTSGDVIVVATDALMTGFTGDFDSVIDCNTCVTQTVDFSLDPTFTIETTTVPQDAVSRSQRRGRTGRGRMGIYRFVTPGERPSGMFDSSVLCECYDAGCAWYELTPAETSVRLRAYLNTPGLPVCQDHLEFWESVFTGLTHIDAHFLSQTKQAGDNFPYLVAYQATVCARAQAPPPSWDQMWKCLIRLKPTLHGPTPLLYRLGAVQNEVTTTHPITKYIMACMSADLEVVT

What is called EC50 is the concentration at which the effect is half-maximal. For the compound `CC(=O)Oc1ccc(/C=C/c2cc(OC(C)=O)cc3c2C(c2cc(OC(C)=O)cc(OC(C)=O)c2)C(c2ccc(OC(C)=O)cc2)O3)cc1` (racemic) [SVF-5Ac, penta-acetylated (±)- -viniferin], the EC50 in data set [1] (setting [11]) amounted to 2.4e-06 M; in [2] (Hepatitis C virus, GETYPE2A|GT2A, Huh7.5, read-out: EC50 (M), GT 2a RT-PCR, Table 1 summary), 4.7e-06 M; in [3] (Hepatitis C virus, GETYPE1B|GT1B, Huh7.5, read-out: EC50 (M), GT 1b RT-PCR, Table 1 summary), 1.04e-05 M; in data set [4] (Hepatitis C virus, GETYPE2A|GT2A, Huh7.5, read-out: EC50 (M), GT 2a Western blot, Table 1 summary) it was 1e-06 M; in data set [5] (setting [12]), 8e-07 M. The CC50 at 72 h in “in vitro” is above 1e-05 M. Besides, the “T1/2 (time required for 50% reduction of the HCV NS3 protein)” value in data set [4] is given as above 72 h. Besides, the “T1/2 (time for 50% reduction of HCV protein)” value in [5] is reported as 29.6 h.

Broadly, the Cmax is the highest concentration seen after dosing. As usually defined, the Tmax is the time at which the peak concentration occurs. As for `Oc1ccc(/C=C/c2cc(O)cc3c2C(c2cc(O)cc(O)c2)C(c2ccc(O)cc2)O3)cc1` (racemic) [SVF, (±)- -viniferin], the EC50 in data set [1] (read-out: EC50 (M), GT 2a luciferase reporter assay, Table 1 summary) was 2e-07 M; in data set [2] (setting [13]), 9.3e-06 M; in [3] (setting [14]), 1.7e-06 M; in data set [4] (setting [15]) it was 6.4e-06 M; in [5] (read-out: EC50 (M), GT 1b Western blot, Table 1 summary), 9e-07 M. Moreover, the CC50 with Huh7.5 cells was above 1e-05 M. Also, the “T1/2 (time required for 50% reduction of the HCV NS3 protein)” value in data set [4] worked out at 37.1 h. The “T1/2 (time for 50% reduction of HCV protein)” value in [5] turned out to be 13.1 h. The Cmax was 2130 ± 403 ng/mL in data set [6] (ip, intraperitoneal dose of 15 mg/kg, read-out: Cmax) and 53.5 ± 28.2 ng/mL in data set [6] (oral dose of 50 mg/kg, read-out: mean Cmax). In addition, in data set [6] (oral dose of 50 mg/kg), the Tmax is 0.375 h. Further, in data set [7], the oral bioavailability result is on record as “below 1%”.

As for `Oc1ccc([C@H]2Oc3cc(O)cc(/C=C/c4ccc5c(c4)[C@@H](c4cc(O)cc6c4[C@H](c4cc(O)cc(O)c4)[C@@H](c4ccc(O)cc4)O6)[C@H](c4ccc(O)cc4)O5)c3[C@@H]2c2cc(O)cc(O)c2)cc1` [vitisin B], in the data set with HCV replication (read-out: EC50, anti-HCV activity), the EC50 is 6 nM. Further, the CC50 in data set [8] is above 10000 nM. In addition, the IC50 on viral helicase NS3 is 3 nM.

Regarding `Oc1ccc(/C=C/c2cc(O)cc3c2C(c2cc(O)cc(O)c2)C(c2ccc(O)cc2)O3)cc1` (stereo not shown) [viniferin], in the data set with HCV replication (read-out: EC50 value for inhibiting HCV replication in vitro), the EC50 is 1000 nM. For the same compound, the oral bioavailability entry in data set [9] is “less than 1%”.

For `Oc1ccc(/C=C/c2cc(O)cc(O)c2)cc1` [resveratrol, reference compound], the “dose-dependent increase of fluorescence (helicase inhibition)” value in data set [10] (negative control, up to a concentration of 10 μM) was “did not”.

With `Oc1ccc(/C=C/c2cc(O)cc3c2C(c2cc(O)cc(O)c2)C(c2ccc(O)cc2)O3)cc1` (stereo not drawn) [EVF, (+)-ε-viniferin], the EC50 in data set [1] (setting [11]) was found to be 1e-07 M; in data set [2] (setting [13]), 2.9e-06 M; in data set [3] (setting [14]) it was 7e-06 M; in data set [4] (setting [15]) it was 1.2e-06 M; in [5] (setting [12]), 9e-07 M. Besides, the “fold more antiviral activity than SVF” value in data set [1] (genotype 2a renilla luciferase-based HCV replication assay) is given as 2.0 fold; in [2] (genotype 2a RT-PCR-based HCV replication assay), 3.2 fold. For the same compound, the CC50 at 72 h in the data set “in vitro” was above 1e-05 M. In addition, in [4], the “T1/2 (time required for 50% reduction of the HCV NS3 protein)” value was found to be 35.1 h. Further, the “T1/2 (time for 50% reduction of HCV protein)” value in data set [5] is on record as 58.2 h. The IC50 in [10] (Cy5-dsDNA substrate, 2 nM HCV NS3 helicase, fluorescence Ex/Em 650/675 nm, read-out: IC50 (half maximal inhibitory concentration), NS3 helicase) is 58.7 nM.

The values above are taken from paper PMC6832221 (Viruses, 2019).
